Series [1] in a line: Electron spin resonance (ESR) measurement test, amount of tyrosine radical. Conditions: 5 μM, 50 μM and 500 μM added to standard solution; activity order R<DR<DHR. Type of series: biochemical. The protocol:
(§1) Resveratrol (R), as well as dimethyl resveratrol (DR) and dimethylhydroxy resveratrol (DHR), which are compounds of the present invention, were added to radicals serving as standard substances, and the amounts of remaining tyrosine radicals and hydroxyl radicals were assessed. Specifically, a standard solution comprising a 50 mM NaPi buffer (pH 7.4), 10 mM DMPO, 1.6 mM myoglobin, and 1 mM H2O2 was prepared using myoglobin as a tyrosine radical. Further, a standard solution comprising a 50 mM NaPi buffer (pH 7.4), 10 mM DMPO, 0.1 mM Fe^2+-EDTA, and 1 mM H2O2 was prepared using Fe^2+-EDTA as a hydroxyl radical. […] The ESR was set as follows: microwave power: 10 mW; adjusted frequency: 100 KHz; adjusted magnetic field: 0.1 G; receiver gain: 1000; and time constant: 0.3 s. FIGS. 1(A) and 1(B) show the results.

Series [2] is described as follows: Electron spin resonance (ESR) measurement test, amount of hydroxyl radical. Type of series: biochemical. Conditions: 5 μM, 50 μM and 500 μM added to standard solution; activity order R<DR<DHR. Here is the method: as §1
Series [3] relates to keratoconjunctival epithelial damage caused by dry eye. Nature of the series: Therapeutic efficacy test using smoking rat (Example 3): tear volume and fluorescein staining score. Type of series: in vivo, Sprague-Dawley rats. Conditions: smoking rats, 300 μM PBS solution, 5 μL instilled 4 times per day for 11 days; for tear volume (cotton thread test, length of wet portion): smoking group 10.0±5.0, non-smoking 14.0±9.1. The protocol:
In this experiment, both eyes of each animal were used. The same drug solution was administered to both eyes of each animal, and a comparison was made among groups.
Six-week-old male Sprague-Dawley rats were subjected to smoking treatment to develop dry-eye, presbyopia models.
Specifically, a treatment in which mainstream smoke (300 mL) was added to a rat-containing chamber 6 times at 30-minute intervals was performed for 12 days to induce keratoconjunctival epithelial damage. […] Each group consisted of 4 animals (8 eyes).
After the 11-day smoking treatment, the body weight, tear volume, fluorescent staining score, and crystalline lens hardness were measured.
To determine the tear volume, tears accumulated in the cornea of rat were measured in accordance with the cotton thread test. Specifically, after the rats were anesthetized with ocular instillation of oxybuprocaine hydrochloride, a cotton thread was inserted between the palpebra and eyeball for 60 seconds, and tears were collected. The tear volume was assessed by measuring the length (mm) of the wet portion in the cotton thread.
After the completion of ocular instillation, a damaged portion in corneal epithelium was stained with a fluorescent dye (fluorescein). Then, the degree of corneal epithelial damage was assessed based on the following criteria by scoring each section of the entire cornea, which was divided into a total of 9 sections, i.e., upper, middle, and lower, and left, center, and right sections, and calculating the total value. Thereafter, the score values were compared among the groups for analysis. For statistical analysis, a significant difference test was performed by using the Dunnett method in terms of each group with respect to the smoking group. For unbiased evaluation, the content of the drug solution administered to each group was blinded from the initiation of ocular instillation to the scoring of the corneal epithelial damage, and collated after scoring.
Evaluation Criteria for Scoring of Fluorescein Staining of Corneal Epithelium
• 0: not stained (no punctate fluorescence) • 1: weak punctate fluorescence • 2: relatively intense punctate fluorescence • 3: strong punctate fluorescence The crystalline lens hardness was measured by combining an electronic weighing scale and height gauge. A crystalline lens whose minor axis length had been previously measured was placed on an electronic weighing scale, and the weight was set to 0. The handle of a height gauge was used above the crystalline lens to allow the end portion to be in contact with the crystalline lens. Further using the handle, the end portion was lowered about 5 to 10% of the minor axis length to apply a pressure on the crystalline lens. The change in the weight at this time was measured with the electronic weighing scale, and the weight was divided by the moving distance measured with the height gauge. The resulting value was considered to be hardness. A larger value represents more hardness.
For statistical analysis of the body weight, tear volume, and crystalline lens hardness, a significant difference test was performed using the Dunnett method in terms of each group with respect to the smoking group.

A further series relates to crystalline lens. The experiment in a line: Smoking rat presbyopia model (Example 3): crystalline lens hardness. In kind it is in vivo, Sprague-Dawley rats. The conditions noted are these: smoking rats, 300 μM PBS solution, 5 μL instilled 4 times per day for 11 days; smoking group 1.04±0.05, non-smoking 0.75±0.04. The protocol:
Six-week-old male Sprague-Dawley rats were subjected to smoking treatment to develop dry-eye, presbyopia models. Specifically, a treatment in which mainstream smoke (300 mL) was added to a rat-containing chamber 6 times at 30-minute intervals was performed for 12 days to induce keratoconjunctival epithelial damage. […] Each group consisted of 4 animals (8 eyes). After the 11-day smoking treatment, the body weight, tear volume, fluorescent staining score, and crystalline lens hardness were measured. • 0: not stained (no punctate fluorescence) • 1: weak punctate fluorescence • 2: relatively intense punctate fluorescence • 3: strong punctate fluorescence The crystalline lens hardness was measured by combining an electronic weighing scale and height gauge. A crystalline lens whose minor axis length had been previously measured was placed on an electronic weighing scale, and the weight was set to 0. The handle of a height gauge was used above the crystalline lens to allow the end portion to be in contact with the crystalline lens. Further using the handle, the end portion was lowered about 5 to 10% of the minor axis length to apply a pressure on the crystalline lens. The change in the weight at this time was measured with the electronic weighing scale, and the weight was divided by the moving distance measured with the height gauge. The resulting value was considered to be hardness. A larger value represents more hardness. For statistical analysis of the body weight, tear volume, and crystalline lens hardness, a significant difference test was performed using the Dunnett method in terms of each group with respect to the smoking group.

Series [4] in a line: Measurement of radical scavenging activity (galvinoxyl radical, stopped flow method). In kind it is biochemical. Conditions: acetonitrile, deaerated with argon, absorbance at 428 nm.
Description: Unlike active oxygen, a galvinoxyl radical (GO•), which is a relatively stable organic oxygen radical having a characteristic peak absorption at 428 nm, may be used to perform kinetic analysis in terms of the radical scavenging ability of antioxidants using ultraviolet visible spectroscopy.
In this experiment, the radical scavenging rate was measured by a stopped flow method. The following reagent was used: • Acetonitrile (Nacalai Tesque, Inc., 00433-95); and • Galvinoxyl Radical (Aldrich, G30-7).
A solution of GO• in acetonitrile (about 2.4×10^−6 M) was bubbled with argon for 7 minutes to remove molecular oxygen. […] Subsequently, the acetonitrile solutions of GO• and the compounds were simultaneously mixed to measure changes in the peak absorption of GO• (at 428 nm) over time by a stopped flow method.
Under conditions in which the concentration of each antioxidant is 10 times or more than that of GO• ([Antioxidant agent]>10[GO•]), the reduction in the absorbance at 428 nm derived from GO• follows the pseudo-first-order kinetics (equation (1)) with respect to the concentration of each antioxidant agent (antioxidant): −d[GO•]/dt=kobs[GO•] […] Integration of both sides of equation (1) leads to equation (2): ln([GO•]/[GO•]0)=−kobst (2), wherein [GO•]o is a concentration of GO• when t=0. […]
Series [5] can be described thus: Stability test at 25° C. and 60% RH, amount by HPLC. In kind it is physicochemical. The conditions noted are these: 25° C. 60% RH; for amount of compound remaining, average: average of three runs; for amount of compound remaining, single runs: first/second/third time. Here is the method: After a constant period of time, the amount of each compound was measured by HPLC to evaluate the stability. The amount of the compound was calculated in accordance with: (The amount of compound after a constant period of time)/(the amount of compound at the time when the test was initiated)×100(%).

For series [6], the system named is keratoconjunctival epithelial damage caused by dry eye. The experiment in a line: Therapeutic efficacy test using smoking rat (Example 5), comparison with Diquas. In kind it is in vivo, Sprague-Dawley rats. Here is the method:
In this experiment, both eyes of each animal were used. The same drug solution was administered to both eyes of each animal, and a comparison was made among groups. Six-week-old male Sprague-Dawley rats were subjected to smoking treatment to develop dry-eye models. Specifically, a treatment in which mainstream smoke (300 mL) was added to a rat-containing chamber 6 times at 30-minute intervals was performed for 12 days to induce a keratoconjunctival epithelial damage. […] The tear volume and fluorescent staining score were measured in accordance with the method described in Example 3. For statistical analysis, a significant difference test was performed using the Dunnett method in terms of each group with respect to the smoking group.

Setting [7] is: 10 mM solution (10% DMSO in water), 1 week.
Setting [8] is: 10 mM solution (10% DMSO in water), 2 weeks.
Setting [9] is: 10 mM solution (10% DMSO in water), 1 day.
[10] abbreviates: 10 mM solution (10% DMSO in water), 2 days.
Where [11] appears, read: 10 mM solution (10% DMSO in water), 3 days.

Values joined by “and” are separate entries in the source; they are usually repeats but may differ in a detail not shown here. Equal entries are not always repeated.

Consider `C/C(=C(/C)c1ccc(O)c(O)c1)c1cc(O)cc(O)c1` [DHR, (E)-4-[3-(3,5-dihydroxyphenyl)but-2-en-2-yl]benzene-1,2-diol], for which the “radical generation (amount of tyrosine radical, ESR)” value in series [1] is listed as “reduced radical generation in a concentration-dependent manner”. For the same compound, the “radical generation (amount of hydroxyl radical, ESR)” value in series [2] is on record as “reduced radical generation in a concentration-dependent manner”. For the same compound, the “average fluorescein score (fluorescent staining score)” value in series [3] (smoking group 3.7±1.0, non-smoking 0.8±1.0) came out at 1.5±0.5. Also, the “tear volume (cotton thread test, length of wet portion)” value in series [3] was 13.8±11.1 mm. Besides, the “crystalline lens elasticity (hardness; larger value = harder)” value in the series with crystalline lens is recorded as 0.75±0.05. The “radical scavenging activity (constant kHT of rate of hydrogen transfer to GO•)” value in series [4] is 2300 M⁻¹ s⁻¹.
As to `Oc1ccc(/C=C/c2cc(O)cc(O)c2)cc1` [Resveratrol, trans-1,2-(3,4′,5-trihydroxydiphenyl)ethylene, reference compound], the “radical generation (amount of tyrosine radical, ESR)” value in series [1] is listed as “reduced radical generation in a concentration-dependent manner”. For the same compound, the “radical generation (amount of hydroxyl radical, ESR)” value in series [2] is reported as “reduced radical generation in a concentration-dependent manner”. In series [3], the “tear volume (cotton thread test, length of wet portion)” value worked out at 6.9±4.3 mm. For the same compound, the “crystalline lens elasticity (hardness; larger value = harder)” value in the series with crystalline lens is reported as 0.87±0.06. In addition, the “amount of compound remaining, average” value in series [5] (setting [7]) amounted to 82%; in series [5] (setting [8]), 64%; in series [5] (setting [9]), 98%; in series [5] (setting [10]) it was 95%; in series [5] (setting [11]), 91%; in series [5] (solid, 1 week), 99%. The “amount of compound remaining, average” value in series [5] (solid, 2 weeks) worked out at 95%; in series [5] (solid, 3 weeks), 91%; in series [5] (solid, 4 weeks), 86%. Also, the “amount of compound remaining, single runs” value is 80% and 82% and 85% in series [5] (setting [7]); 59% and 65% and 68% in series [5] (setting [8]); 98% and 99% and 96% in series [5] (setting [9]); 95% and 96% in series [5] (setting [10]); 90% and 93% in series [5] (setting [11]); 100% and 101% and 97% in series [5] (solid, 1 week). Further, the “amount of compound remaining, single runs” value in series [5] (solid, 2 weeks) was 96% and 94%; in series [5] (solid, 3 weeks), 91% and 90% and 92%; in series [5] (solid, 4 weeks), 88% and 86% and 85%.
`O=c1ccn([C@@H]2O[C@H](COP(=O)(O)OP(=O)(O)OP(=O)(O)OP(=O)(O)OC[C@H]3O[C@@H](n4ccc(=O)[nH]c4=O)[C@H](O)[C@@H]3O)[C@@H](O)[C@H]2O)c(=O)[nH]1` [diquafosol sodium, reference compound] returned a body weight in series [6] (smoking rats after 11-day treatment, instilled 5 μL 4 times per day, smoking group 280.0±5.8) of 273.8 ± 4.3 g. Besides, the “average fluorescein score (fluorescent staining score)” value in series [6] (smoking rats, DR 300 μM in PBS or Diquas 3%, 5 μL 4 times per day for 11 days, smoking group 4.6±1.2, non-smoking 1.2±1.2) is reported as 4.3±1.6. In addition, the “tear volume (cotton thread test)” value in series [6] (smoking rats, DR 300 μM in PBS or Diquas 3%, 5 μL 4 times per day for 11 days, smoking group 11.3±9.0, non-smoking 17.6±9.1) was determined as 11.0±6.5 mm.

Source of the values: patent publication US9968566B2, “Pharmaceutical composition for prophylaxis and/or treatment of corneal and conjunctival diseases or presbyopia containing stilbene compound as active ingredient” (KEIO UNIVERSITY, priority 2014, dated 2018).
